One data set relates to E. coli DH5a. In words: Antimicrobial activity of dyed Nylon 6,6 fabric: final OD600 and % inhibition. In kind it is cell-based. How it is done: (§1) Violacein is reported as being a potent antibiotic, capable of inhibiting the growth of a wide range of microbial kingdoms including bacteria, yeast, fungi, viruses, protozoa and nematode. […] To test this, overnight cultures of wild-type E. coli DH5a and S. cerevisiae S228c strains were diluted in 5 mL of cultivation media (LB for E. coli, minimal media for S. cerevisiae) to a starting OD600 of 0.1. 1.5×1.5 cm dyed Nylon 6,6 fabric strips were sterilized by submerging in 75% ethanol for 15 mins and air drying in a laminar air flow hood before adding to each culture (with undyed Nylon 6,6 fabric as a negative control). […] This experiment provides evidence that all violacein derivatives display antimicrobial properties.

The next data set deals with S. cerevisiae S228c. The data set is described as above. In kind it is cell-based. As to the method:
as §1

Data set [1] is described as follows: Free radical scavenging ability of dyed Nylon 6,6 fabric (DPPH). Format: biochemical. As to conditions: dyed Nylon 6,6 fabric strip. As to the method: Violacein is reported as being a potent antioxidant able to effectively scavenge free radicals. […] To test this, 1.5×1.5 cm dyed Nylon 6,6 fabric strips were incubated in the dark at room temperature for 1 h in 5 mL of a 5×10^−5 M DPPH free radical solution in 100% ethanol. Undyed Nylon 6,6 fabric strips were included as a negative control. After 1 h absorbance was measured at 517 nm and % scavenging ability calculated as above.
For orientation: Loss of DPPH colour is used to gauge radical scavenging.

Data set [2] in a line: UV absorption capability (absorbance maxima, UV-A, UV-B, UV-C absorption) by HPLC. Format: physicochemical. How it is done:
The software Agilent Openlab CDS Chemstation Rev.
Violacein is reported as being a potent UV absorbent able to effectively absorb UV radiation, however, much less is known about the other violacein derivatives. To investigate the potential of using violacein and violacein derivatives as UV inhibitors and to potentially impart UV protection to fabrics, the UV absorption spectra of each compound was analyzed by HPLC and the total absorption capability at each of the most relevant UV wavelengths quantified.
For the quantification of UV absorption capacity of the compound of interest, a chromatographic separation on the F5 column and a gradient of water/acetonitrile containing 0.05% formic acid was run according to Example 5). […] The compounds were quantified based on the signal at 230 nm, using calibration curves of authentic analytical standards.
The UV absorption capacity is represented in mAU.min/mM. UV-A, UV-B and UV-C represent the most relevant regions where UV protection is required. UV-C is the most harmful type of UV radiation and can be generated by inorganic sources. UV-B radiation predominantly comes from the suns rays and is responsible for sun burn. UV-A radiation is also derived predominantly from the suns rays, and while UV-A radiation is less harmful than UV-B or UV-C but is much more prevalent.

In the next data set the test system is S. cerevisiae. In words: Cultivation of engineered S. cerevisiae production strains (titer of each metabolite, final OD600, product toxicity). To be noted: intracellular accumulation; growth rate and final OD600.
Data set [3] in a line: Solubility, stability (heat, UV) and colour of violacein and proviolacein glycosides in aqueous solution. In kind it is physicochemical. An excerpt: In this experiment, qualitative assessments of the solubility, stability and colour of glycosylated violacein and proviolacein were made. The first notable observation was that after the scale-up glycosylation reaction the aqueous phase of the reaction mix was purple (for violacein) and blue (for proviolacein). […] While its well known that glycosylation greatly improves the water solubility of molecules, the attachment of a sugar group typically changes the physiochemical properties of the molecule. In the case of coloured compounds, this typically eliminates their colour. The observation here that glycosylation results in a derivative that retains the original colour is both surprising and commercially useful for use in aqueous products e.g. beverages. To test the stability of violacein and proviolacein glycosides in aqueous solution the solutions were exposed to heat (incubated at 80° c. for 6 h) and UV (incubated in a UV hood for 6 h). HPLC analysis before after each test was used to measure the amount that had degraded during exposure. […] (approx. 0.1% lost during exposure).

The values that follow come from US20260092179A1, “GENETICALLY MODIFIED HOST CELLS PRODUCING VIOLACEIN, ANALOGUES, AND DERIVATIVES THEREOF” (OCTARINE BIO APS, priority 2022, published 2026).

Protocol for S. cerevisiae SC-144: After cultivation cultures were transferred to 50 mL falcon tubes and centrifuged 4000×g for 5 min. […] The aqueous layers were separated from the cell pellets to observe the colour of the cells. […] Samples were diluted in water to a final volume of 100 μL until they were within the linear range of the spectrophotometric plate reader. Each sample was measured at 575 nm (experimentally determined to be the emission maxima of deoxyviolacein). […] The final OD600 of each cultivation was also measured by first washing the cell pellet with water (to remove as much deoxyviolacein from the media as possible) and finally resuspending in 50 mL water.

Take “(1,1,3,3-Tetramethylbutyl)phenyl-polyethylene glycol, Polyethylene glycol tert-octylphenyl ether [Triton X-114]”: the “toxicity of in situ extractant to S. cerevisiae” value in the data set on S. cerevisiae SC-144 is given as “non-toxic”.

For the compound `O=C1N=C(c2c[nH]c3ccccc23)C=C1c1c[nH]c2ccccc12` [prodeoxyviolacein], the “Final OD600” value with E. coli DH5a (E. coli cultured overnight at 30° c. with dyed Nylon 6,6 fabric strip, starting OD600 0.1) came out at 4.67; in the data set on S. cerevisiae S228c (S. cerevisiae cultured overnight at 30° c. with dyed Nylon 6,6 fabric strip, starting OD600 0.1), 4.70. For the same compound, the % Inhibition (as a rule, the drop in the measured response relative to a control, in per cent) was found to be 10.49% in the data set on E. coli DH5a (E. coli, dyed Nylon 6,6 fabric vs undyed fabric control) and 12.35% in the data set on S. cerevisiae S228c (S. cerevisiae, dyed Nylon 6,6 fabric vs undyed fabric control). In data set [1] (1 h in the dark in 5×10^−5 M DPPH in 100% ethanol), this compound showed an OD517 of 1.99. The compound further displayed a Scavenging ability % in data set [1] (1 h in the dark in 5×10^−5 M DPPH, vs undyed control) of 12.28%. Besides, the “UV absorption capability in the UV-B region” value in data set [2] (305 nm) was “particularly high”. The “Total UV absorption UV C (245 nm)” value in data set [2] (AUC of HPLC peak at 245 nm per mM) is listed as 3516.1 (mAU · min)/mM. Moreover, the “Total UV absorption UV B (305 nm)” value in data set [2] (AUC of HPLC peak at 305 nm per mM) was 3778.8 (mAU · min)/mM. Besides, in data set [2] (AUC of HPLC peak at 360 nm per mM), the “Total UV absorption UV A (360 nm)” value was 0 (mAU · min)/mM.

Take `N=C(Cc1c[nH]c2ccccc12)C(=O)O` [IPA imine, Indole 3-pyruvic acid imine]: in the data set with S. cerevisiae, the “toxicity to the yeast production host” value is reported as “not toxic”.

`O=C1NC(c2c[nH]c3ccc(OC4OC(CO)C(O)C(O)C4O)cc23)=CC1=C1C(=O)Nc2ccccc21` (stereo not shown) [violacein glucoside]: in data set [3], the “amount lost (degraded) during exposure to UV” value is recorded as “approx. 0.1%”, the “amount lost (degraded) during exposure to heat” value is reported as “approx. 0.1%” and the water solubility result was “water soluble”.

In the case of `CCCCCCCCCCCCCC(=O)OC(C)C` [isopropyl myristate], the “toxicity of in situ extractant to S. cerevisiae” value with S. cerevisiae SC-144 is given as “non-toxic”.
